From ChEMBL document CHEMBL5120971, “Network Pharmacology Research and Dual-omic Analyses Reveal the Molecular Mechanism of Natural Product Nodosin Inhibiting Muscle-Invasive Bladder Cancer in Vitro and in Vivo” (J Nat Prod, 2022)
Activity calls are given as the source filed them. The calls are words filed in the database; no cut-off is given here.

Key:
T-24 [1] = test: Induction of mitochondrial membrane potential loss in human T24 cells at 8 to 16 uM measured after 24 hrs by JC1 dye based fluorescence assay; type: functional, cell-based; conditions: dose 8-16 µM
T-24 [2] = test: Antimigratory activity against human T24 cells assessed as down regulation of LIMA1 expression at 6 uM measured after 24 to 30 hrs by proteomic analysis; type: functional, cell-based; conditions: time 24-30 hrs
T-24 [3] = test: Cytotoxicity against human T24 cells assessed as reduction in cell growth measured after 24 hrs by live/dead staining based fluorescence assay; type: functional; conditions: dose 4-10 µM, DDE = dose-dependent effect
T-24 [4] = test: Up regulation of FTL gene expression in human T24 cells at 6 uM measured after 12 to 18 hrs by transcriptome analysis; type: functional, cell-based; conditions: time 12-18 hrs
T-24 [5] = test: Antitumor activity against human T24 cells xenografted in BALB/c mouse assessed as reduction in mitotic count at 2 mg/kg, ip administered at 2 days interval by H and E staining based assay; type: functional, organism-based
T-24 [6] = test: Induction of autophagy in human T24 cells assessed as effect on LGALS8 gene expression at 6 uM measured after 12 to 18 hrs by transcriptome analysis; type: functional, cell-based; conditions: time 12-18 hrs
T-24 [7] = test: Induction of autophagy in human T24 cells assessed as effect on CISD2 gene expression at 6 uM measured after 12 to 18 hrs by transcriptome analysis; type: functional, cell-based; conditions: time 12-18 hrs
T-24 [8] = test: Induction of apoptosis in human T24 cells assessed as up regulation of SQSTM1 expression at 6 to 12 uM measured after 24 hrs by immunofluorescence analysis; type: functional, cell-based; conditions: dose 6-12 µM
T-24 [9] = test: Antimigratory activity against human T24 cells assessed as down regulation of PALLD expression at 6 uM measured after 24 to 30 hrs by proteomic analysis; type: functional, cell-based; conditions: time 24-30 hrs
T-24 [10] = test: Effect on HLTF expression in human T24 cells at 6 uM measured after 24 to 30 hrs by proteomic analysis; type: functional, cell-based; conditions: time 24-30 hrs
T-24 [11] = test: Inhibition of colony formation in human T24 cells at 1 to 12 uM measured after 12 days by crystal violet staining based microscopy; type: functional, cell-based; conditions: dose 1-12 µM, time 12.0 day
T-24 [12] = test: Effect on SUMO3 expression in human T24 cells at 6 uM measured after 24 to 30 hrs by proteomic analysis; type: functional, cell-based; conditions: time 24-30 hrs
T-24 [13] = test: Induction of apoptosis in human T24 cells assessed as effect on FAM168A expression at 6 uM measured after 24 to 30 hrs by proteomic analysis; type: functional, cell-based; conditions: time 24-30 hrs
T-24 [14] = test: Antitumor activity against human T24 cells xenografted in BALB/c mouse assessed as reduction in tumor weight at 2 mg/kg, ip administered at 2 days interval; type: functional, organism-based
T-24 [15] = test: Induction of apoptosis in human T24 cells assessed as effect on DHCR24 expression at 6 uM measured after 24 to 30 hrs by proteomic analysis; type: functional, cell-based; conditions: time 24-30 hrs
T-24 [16] = test: Effect on RPA2 expression in human T24 cells at 6 uM measured after 24 to 30 hrs by proteomic analysis; type: functional, cell-based; conditions: time 24-30 hrs
T-24 [17] = test: Induction of morphological changes in human T24 cells assessed as reduction in cell extension at 4 to 12 uM measured after 48 hrs by microscopy; type: functional, cell-based; conditions: dose 4-12 µM
T-24 [18] = test: Effect on POLD3 expression in human T24 cells at 6 uM measured after 24 to 30 hrs by proteomic analysis; type: functional, cell-based; conditions: time 24-30 hrs
T-24 [19] = test: Effect on MSH2 expression in human T24 cells at 6 uM measured after 24 to 30 hrs by proteomic analysis; type: functional, cell-based; conditions: time 24-30 hrs
T-24 [20] = test: Up regulation of SLC7A11 gene expression in human T24 cells at 6 uM measured after 12 to 18 hrs by transcriptome analysis; type: functional, cell-based; conditions: time 12-18 hrs
T-24 [21] = test: Effect on NEK6 expression in human T24 cells at 6 uM measured after 24 to 30 hrs by proteomic analysis; type: functional, cell-based; conditions: time 24-30 hrs
T-24 [22] = test: Induction of apoptosis in human T24 cells assessed as viable cells at 8 uM measured after 48 hrs by Annexin V-FITC/propidium iodide staining based flow cytometry (reference value: 97.49%); type: functional; conditions: read-out: Activity
T-24 [23] = test: Cell cycle arrest in human T24 cells assessed as increase in cell accumulation at S-phase at 2 to 8 uM measured after 24 hrs by propidium iodide staining based flow cytometry; type: functional; conditions: dose 2-8 µM
T-24 [24] = test: Antimigratory activity against human T24 cells assessed as reduction in F-actin expression at 8 to 20 uM measured after 24 hrs by actin-tracker red-594/DAPI staining based fluorescence assay; type: functional, cell-based; conditions: dose 8-20 µM
T-24 [25] = test: Antimigratory activity against human T24 cells assessed as down regulation of ITGA3 expression at 6 uM measured after 24 to 30 hrs by proteomic analysis; type: functional, cell-based; conditions: time 24-30 hrs
T-24 [26] = test: Induction of apoptosis in human T24 cells assessed as up regulation of MAP1LC3B expression at 6 to 12 uM measured after 24 to 30 hrs by Western blot analysis; type: functional, cell-based; conditions: dose 6-12 µM, time 24-30 hrs
T-24 [27] = test: Antimigratory activity against human T24 cells assessed as down regulation of NEXN expression at 6 uM measured after 24 to 30 hrs by proteomic analysis; type: functional, cell-based; conditions: time 24-30 hrs
T-24 [28] = test: Induction of apoptosis in human T24 cells assessed as early apoptotic cells at 4 uM measured after 48 hrs by Annexin V-FITC/propidium iodide staining based flow cytometry (reference value: 1.2%); type: functional
T-24 [29] = test: Up regulation of FTL expression in human T24 cells at 6 uM measured after 24 to 30 hrs by proteomic analysis; type: functional, cell-based; conditions: time 24-30 hrs
T-24 [30] = test: Cytotoxicity against human T24 cells assessed as reduction in cell growth at 4 uM by CCK8 assay; type: functional, cell-based; conditions: time 24-72 hrs, TDE = time-dependent effect
T-24 [31] = test: Effect on RHOB expression in human T24 cells at 6 uM measured after 24 to 30 hrs by proteomic analysis; type: functional, cell-based; conditions: time 24-30 hrs
T-24 [32] = test: Induction of mitochondrial membrane disruption in human T24 cells at 4 to 8 uM measured after 48 hrs by transmission electron microscopy; type: cell-based; conditions: dose 4-8 µM
T-24 [33] = test: Induction of apoptosis in human T24 cells assessed as effect on AIFM2 expression at 6 uM measured after 24 to 30 hrs by proteomic analysis; type: functional, cell-based; conditions: time 24-30 hrs
T-24 [34] = test: Induction of apoptosis in human T24 cells assessed as late apoptotic cells at 6 uM measured after 48 hrs by Annexin V-FITC/propidium iodide staining based flow cytometry (reference value: 0.74%); type: functional
T-24 [35] = test: Induction of apoptosis in human T24 cells assessed as late apoptotic cells at 4 uM measured after 48 hrs by Annexin V-FITC/propidium iodide staining based flow cytometry (reference value: 0.74%); type: functional
T-24 [36] = test: Induction of apoptosis in human T24 cells assessed as early apoptotic cells at 8 uM measured after 48 hrs by Annexin V-FITC/propidium iodide staining based flow cytometry (reference value: 1.2%); type: functional
T-24 [37] = test: Induction of morphological changes in human T24 cells assessed as appearance of apoptotic bodies at 4 to 8 uM measured after 48 hrs by transmission electron microscopy; type: functional, cell-based; conditions: dose 4-8 µM
T-24 [38] = test: Antimigratory activity against human T24 cells assessed as down regulation of CFL2 expression at 6 uM measured after 24 to 30 hrs by proteomic analysis; type: functional, cell-based; conditions: time 24-30 hrs
T-24 [39] = test: Induction of ROS generation in human T24 cells at 4 to 10 uM measured after 6 hrs by H2DCFDA probe based flow cytometry; type: functional, cell-based; conditions: dose 4-10 µM

Compound: C=C1C(=O)[C@]23C[C@H]1C[C@@H](O)[C@H]2[C@@]12CO[C@@H](O)[C@@H]1C(C)(C)CC[C@@H]2OC3=O [NODOSIN]
- Activity (T-24 [1]): Active
- Activity (T-24 [2]): Active
- Activity (T-24 [3]): Dde
- Activity (T-24 [4]): Active
- Activity (T-24 [5]): Active
- Activity (T-24 [6]): Active
- Activity (T-24 [7]): Active
- Activity (T-24 [8]): Active
- Activity (T-24 [9]): Active
- Activity (T-24 [10]): Active
- inhibition (T-24 [11]): Active
- Activity (T-24 [12]): Active
- Activity (T-24 [13]): Active
- Activity (T-24 [14]): Active
- Activity (T-24 [15]): Active
- Activity (T-24 [16]): Active
- Activity (T-24 [17]): Active
- Activity (T-24 [18]): Active
- Activity (T-24 [19]): Active
- Activity (T-24 [20]): Active
- Activity (T-24 [21]): Active
- viability at 8 µM (T-24 [22]): 75.9%
- Activity (T-24 [23]): Active
- Activity (T-24 [24]): Active
- Activity (T-24 [25]): Active
- Activity (T-24 [26]): Active
- Activity (T-24 [27]): Active
- Activity (T-24 [28]): 2.38%
- Activity (T-24 [29]): Active
- Activity (T-24 [30]): Tde
- Activity (T-24 [31]): Active
- Activity (T-24 [32]): Active
- Activity (T-24 [33]): Active
- Activity (T-24 [34]): 10.04%
- Activity (T-24 [35]): 1.34%
- Activity (T-24 [36]): 10.54%
- Activity (T-24 [37]): Active
- Activity (T-24 [38]): Active
- Activity (T-24 [39]): Active
